Results as given in patent US10029986B2, “Alkynyl pyridine-substituted amide compound and pesticide” (NISSAN CHEMICAL INDUSTRIES, LTD., priority 2014, dated 2018).

What was measured:
Asperaillus niger = assay: Test on the antifungal activity against Asperaillus niger; format: cell-based; details: 48 h; test solution B 100 ppm, 10 μl per well, 96 well plate, 25° C. dark, 2 days after treatment; read-out: efficacy (flora area ratio relative to non-treated well)
Description: Compounds of the present invention were dissolved in dimethyl sulfoxide to prepare 1 wt % solutions. Then, distilled water was added to dilute the solutions to the prescribed concentration (100 ppm), and the obtained solutions were used in the following the Test Examples 9 to 12. 60 μl of a potato dextrose 1% agar medium was added to each well of a 96 well plate, and 30 μl of sterilized water containing spores of Asperaillus niger (10 spores/3 μl) was added to each well. Further, 10 μl per well of test solution B of the compounds of the present invention was added, and the plate was left at rest at 25° C. under dark conditions. 2 days after treatment, the flora area ratio (%) was determined to calculate the efficacy (%) relative to the non-treated well in accordance with the following formula. Efficacy (%)=[1−(flora area ratio in treated plot/flora area ratio in non-treated well)]×100

Botrytis cinerea = assay: Test on the preventive effect against cucumber gray mold (mycelium inoculation); format: in vivo; details: 48 h, test solution A 500 ppm, 5 ml per pot, cucumber cotyledon, agar block inoculation, 2 days at 20° C.
Description: Compounds of the present invention were dissolved in a solvent for emulsion (a mixture of Sorpol (registered trademark) 3005XL (manufactured by Toho Chemical Industry Co., Ltd.): N-methylpyrrolidone: Solvesso (registered trademark) 200 (manufactured by ExxonMobil Chemical) in a ratio of 1:5:2) to prepare 20 wt % emulsifiable concentrates. Then, distilled water was added to dilute the emulsifiable concentrates to the prescribed concentration (500 ppm), and the obtained solutions were used in the following the Test Examples 1 to 8. Cucumber (varieties: Sagami Hanjiro) was seeded in 90 cm^3 plastic pot, and at the cotyledon stage, 5 ml per pot of test solution A of the compounds of the present invention was applied. On the next day, the pot was transferred in a plastic container, and an agar blocks (diameter: 5 mm) containing Botrytis cinerea which was preliminarily cultivated in a PDA medium was inoculated on the cotyledon of the cucumber treated with the solution. After the inoculation, the plastic container was covered with a plastic sheet, then placed at 20° C. and humidified for 2 days. Thus the proportion of the formed lesion in the inoculated leaves were measured to calculate the control value in accordance with the same formula as in the Test Example 1. The test was carried out in duplicate.

[1] = system: Blumeria graminis f. sp. tritici; assay: Test on the preventive effect against wheat powdery mildew; format: in vivo; details: 168 h, test solution A 500 ppm, 5 ml per pot, wheat 1.3-leaf stage, 7 days after inoculation
Description: Compounds of the present invention were dissolved in a solvent for emulsion (a mixture of Sorpol (registered trademark) 3005XL (manufactured by Toho Chemical Industry Co., Ltd.): N-methylpyrrolidone: Solvesso (registered trademark) 200 (manufactured by ExxonMobil Chemical) in a ratio of 1:5:2) to prepare 20 wt % emulsifiable concentrates. Then, distilled water was added to dilute the emulsifiable concentrates to the prescribed concentration (500 ppm), and the obtained solutions were used in the following the Test Examples 1 to 8. Wheat (varieties: Norin 61) was seeded in 90 cm^3 plastic pot, and at the 1.3-leaf stage, 5 ml per pot of test solution A of the compounds of the present invention were applied. One day after treatment, the pot was placed in an air-conditioned greenhouse (20° C.), and conidium of Blumeria graminis f. sp. tritici was inoculated to the wheat. 7 days after, the proportion of the formed lesion in the inoculated leaves were measured to calculate the control value in accordance with the same formula as in the Test Example 1. The test was carried out in duplicate.

[2] = system: Erysiphe polygoni (synonym: Erysiphe betae); assay: Test on the preventive effect against cucumber powdery mildew; format: in vivo; details: 216 h, test solution A 500 ppm, 5 ml per pot sprayed, cucumber cotyledon stage, 9 days after inoculation
Method in brief: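 Cucumber (Sagami Hanjiro) at cotyledon stage sprayed with 500 ppm compound (diluted from 20 wt% emulsifiable concentrate), air-dried, then inoculated with Erysiphe polygoni conidia. Kept 9 days at 20 °C in greenhouse; lesion area ratio scored in duplicate, control value = [1−(treated/untreated lesion ratio)]×100.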

[3] = system: Barber pole worm (Haemonchus contortus); assay: Insecticidal test against Barber pole worm (eggs, 96 well plate); format: in vivo; details: 96 h, test solution B 100 ppm, 10 μl per well, 25° C. dark, 4 days after treatment, read-out: efficacy (unhatched eggs and inactive larvae relative to non-treated)
Description: Compounds of the present invention were dissolved in dimethyl sulfoxide to prepare 1 wt % solutions. Then, distilled water was added to dilute the solutions to the prescribed concentration (100 ppm), and the obtained solutions were used in the following the Test Examples 9 to 12. 60 μl of a potato dextrose 1% agar medium was added to each well of a 96 well plate, and 30 μl of sterilized water containing eggs of Barber pole worm (Haemonchus contortus) (10 eggs/3 μl) was added to each well. Further, 10 μl per well of test solution B of the compounds of the present invention was added, and the plate was left at rest at 25° C. under dark conditions.

Sclerotinia sclerotiorum = assay: Test on the preventive effect against cucumber stem rot; format: in vivo; details: 48 h, test solution A 500 ppm, 5 ml per pot, agar block inoculation, 2 days at 20° C.
Description: Compounds of the present invention were dissolved in a solvent for emulsion (a mixture of Sorpol (registered trademark) 3005XL (manufactured by Toho Chemical Industry Co., Ltd.): N-methylpyrrolidone: Solvesso (registered trademark) 200 (manufactured by ExxonMobil Chemical) in a ratio of 1:5:2) to prepare 20 wt % emulsifiable concentrates. Then, distilled water was added to dilute the emulsifiable concentrates to the prescribed concentration (500 ppm), and the obtained solutions were used in the following the Test Examples 1 to 8. Cucumber (varieties: Sagami Hanjiro) was seeded in 90 cm^3 plastic pot, and at the cotyledon stage, 5 ml per pot of test solution A of the compounds of the present invention was applied. After drying in air, the pot was transferred in a plastic container, and an agar blocks (diameter: 5 mm) containing Sclerotinia sclerotiorum which was preliminarily cultivated in a PDA medium was inoculated to the seed leaves of the cucumber treated with the solution. After the inoculation, the plastic container was covered with a plastic sheet, and placed at 20° C. and humidified for 2 days, thus the proportion of the formed lesion in the inoculated leaves were measured to calculate the control value in accordance with the same formula as in the Test Example 1. The test was carried out in duplicate.

`CC(CNC(=O)c1cccnc1C(F)F)c1ncc(C#CC2CC2)cc1Cl` (stereo not shown) [3-006] was tested. Which inhibition of growth at 100 µg/mL (Asperaillus niger) did it give?
The inhibition of growth at 100 µg/mL was no less than 50%.

And the pest or weed control at 500 µg/mL (Botrytis cinerea)?
The pest or weed control at 500 µg/mL was no less than 70%.

And the pest or weed control at 500 µg/mL [1]?
The pest or weed control at 500 µg/mL was no less than 70%.

What about the pest or weed control at 500 µg/mL [2] of the same molecule?
The pest or weed control at 500 µg/mL was no less than 70%.

And the pest or weed control at 100 µg/mL [3]?
The pest or weed control at 100 µg/mL was no less than 50%.

And the pest or weed control at 500 µg/mL (Sclerotinia sclerotiorum)?
Its pest or weed control at 500 µg/mL is no less than 70%.

`CC(CNC(=O)c1ccccc1C(F)(F)F)c1ncc(C#CC2CC2)cc1Cl` (stereo not shown) [1-007, N-[2-[3-chloro-5-(cyclopropylethynyl)pyridin-2-yl]propyl]-2-(trifluoromethyl)benzamide] was tested. Which inhibition of growth at 100 µg/mL (Asperaillus niger) did it give?
Its inhibition of growth at 100 µg/mL is no less than 50%.

What about the pest or weed control at 500 µg/mL (Botrytis cinerea) of the same molecule?
The pest or weed control at 500 µg/mL was no less than 70%.

And the pest or weed control at 500 µg/mL [1]?
The pest or weed control at 500 µg/mL was no less than 70%.

And the pest or weed control at 500 µg/mL [2]?
Its pest or weed control at 500 µg/mL is no less than 70%.

What about the pest or weed control at 100 µg/mL [3] of the same molecule?
Its pest or weed control at 100 µg/mL is no less than 50%.

What about the pest or weed control at 500 µg/mL (Sclerotinia sclerotiorum) of the same molecule?
Its pest or weed control at 500 µg/mL is no less than 70%.

Which inhibition of growth at 100 µg/mL (Asperaillus niger) does the source give for `Cn1cc(C(=O)NCCc2ncc(C#CC3CC3)cc2Cl)c(C(F)F)n1` [8-001] here?
The inhibition of growth at 100 µg/mL was no less than 50%.

And the pest or weed control at 500 µg/mL (Botrytis cinerea)?
Its pest or weed control at 500 µg/mL is no less than 70%.

And the pest or weed control at 500 µg/mL [1]?
The pest or weed control at 500 µg/mL was no less than 70%.

And the pest or weed control at 500 µg/mL [2]?
Its pest or weed control at 500 µg/mL is no less than 70%.

What about the pest or weed control at 100 µg/mL [3] of the same molecule?
The pest or weed control at 100 µg/mL was no less than 50%.

And the pest or weed control at 500 µg/mL (Sclerotinia sclerotiorum)?
The pest or weed control at 500 µg/mL was no less than 70%.

For `CC(Cc1ncc(C#CC2CC2)cc1Cl)NC(=O)c1cn(C)nc1C(F)F` (stereo not shown) [8-024, N-[2-[3-chloro-5-(cyclopropylethynyl)pyridin-2-yl]-1-methylethyl]-3-difluoromethyl-1-methyl-1H-pyrazole-4-carboxamide], which pest or weed control at 500 µg/mL (Botrytis cinerea) is on record?
Its pest or weed control at 500 µg/mL is no less than 70%.

And the pest or weed control at 500 µg/mL [1]?
The pest or weed control at 500 µg/mL was no less than 70%.

And the pest or weed control at 500 µg/mL [2]?
The pest or weed control at 500 µg/mL was no less than 70%.

What about the pest or weed control at 500 µg/mL (Sclerotinia sclerotiorum) of the same molecule?
Its pest or weed control at 500 µg/mL is no less than 70%.

For `Cn1cc(C(=O)NCCc2ncc(C#CC(C)(C)C)cc2Cl)c(C(F)F)n1` [8-002], which inhibition of growth at 100 µg/mL (Asperaillus niger) is on record?
The inhibition of growth at 100 µg/mL was no less than 50%.

And the pest or weed control at 500 µg/mL (Botrytis cinerea)?
Its pest or weed control at 500 µg/mL is no less than 70%.

What about the pest or weed control at 500 µg/mL [1] of the same molecule?
Its pest or weed control at 500 µg/mL is no less than 70%.

And the pest or weed control at 500 µg/mL [2]?
The pest or weed control at 500 µg/mL was no less than 70%.

What about the pest or weed control at 100 µg/mL [3] of the same molecule?
The pest or weed control at 100 µg/mL was no less than 50%.

And the pest or weed control at 500 µg/mL (Sclerotinia sclerotiorum)?
Its pest or weed control at 500 µg/mL is no less than 70%.

How did the inhibition of growth at 100 µg/mL (Asperaillus niger) turn out when `CC(CNC(=O)c1cccnc1Cl)c1ncc(C#CC2CC2)cc1Cl` (stereo not shown) [3-005] was run?
The inhibition of growth at 100 µg/mL was no less than 50%.

And the pest or weed control at 500 µg/mL (Botrytis cinerea)?
The pest or weed control at 500 µg/mL was no less than 70%.

And the pest or weed control at 500 µg/mL [1]?
The pest or weed control at 500 µg/mL was no less than 70%.

And the pest or weed control at 500 µg/mL [2]?
Its pest or weed control at 500 µg/mL is no less than 70%.

And the pest or weed control at 100 µg/mL [3]?
The pest or weed control at 100 µg/mL was no less than 50%.

What about the pest or weed control at 500 µg/mL (Sclerotinia sclerotiorum) of the same molecule?
The pest or weed control at 500 µg/mL was no less than 70%.

Which inhibition of growth at 100 µg/mL (Asperaillus niger) does the source give for `C=C(CNC(=O)c1ccccc1C(F)(F)F)c1ncc(C#CC)cc1Cl` [1-012, N-[2-[3-chloro-5-(1-propynyl)pyridin-2-yl]-2-propenyl]-2-(trifluoromethyl)benzamide] here?
Its inhibition of growth at 100 µg/mL is no less than 50%.

What about the pest or weed control at 500 µg/mL (Botrytis cinerea) of the same molecule?
The pest or weed control at 500 µg/mL was no less than 70%.

And the pest or weed control at 500 µg/mL [1]?
Its pest or weed control at 500 µg/mL is no less than 70%.

And the pest or weed control at 500 µg/mL [2]?
Its pest or weed control at 500 µg/mL is no less than 70%.

What about the pest or weed control at 100 µg/mL [3] of the same molecule?
The pest or weed control at 100 µg/mL was no less than 50%.

And the pest or weed control at 500 µg/mL (Sclerotinia sclerotiorum)?
Its pest or weed control at 500 µg/mL is no less than 70%.

With `O=C(NCC(F)(F)c1ncc(C#CC2CC2)cc1Cl)c1cccnc1C(F)F` [3-003, N-[2-[3-chloro-5-(cyclopropylethynyl)pyridin-2-yl]-2,2-difluoroethyl]-2-(difluoromethyl)nicotinamide] as the molecule, how does the inhibition of growth at 100 µg/mL (Asperaillus niger) read?
The inhibition of growth at 100 µg/mL was no less than 50%.

And the pest or weed control at 500 µg/mL (Botrytis cinerea)?
Its pest or weed control at 500 µg/mL is no less than 70%.

What about the pest or weed control at 500 µg/mL [1] of the same molecule?
Its pest or weed control at 500 µg/mL is no less than 70%.

And the pest or weed control at 500 µg/mL [2]?
Its pest or weed control at 500 µg/mL is no less than 70%.

What about the pest or weed control at 100 µg/mL [3] of the same molecule?
Its pest or weed control at 100 µg/mL is no less than 50%.

What about the pest or weed control at 500 µg/mL (Sclerotinia sclerotiorum) of the same molecule?
Its pest or weed control at 500 µg/mL is no less than 70%.
